The values that follow come from US11078188B2, “Dihydroquinoxaline bromodomain recognition protein inhibitor, preparation method and use thereof” (SHANGHAI INSTITUTE OF MATERIA MEDICA, CHINESE ACADEMY OF …, priority 2017, dated 2021).

Usually IC50 stands for the midpoint of a concentration-inhibition curve.

The first assay concerns the target BRD4 (I) (Homo sapiens (Human), UniProt O60885). In words: Fluorescence anisotropy (FA) binding test on BRD4 (I). Conditions: BRD4 (I) 10 nM, fluorescent (+)-JQ1 substrate 5 nM, read-out: BRD4 (1) IC50. The procedure: The binding activity of the compound to BRD4 (I) was tested using a fluorescence anisotropy (FA) method. The principle of FA test is to calculate and analyze the fluorescence polarization values in the horizontal and vertical directions by detecting the change of molecular weight before and after the interaction of fluorescein-labeled small molecules with other molecules. If the equilibrium of the binding between the fluorescently labeled small molecule and macromolecule is established, it will move slowly when excited, and the measured fluorescence polarization value will increase. If the binding between the fluorescently labeled small molecule and the macromolecule is replaced by another ligand, its rotation or flipping speed in the free state will be faster, and the emitted light will be depolarized relative to the plane of the excitation light, and the measured polarized light value will decrease to calculate the fluorescence anisotropy of the sample.
Expression and purification of the BRD4(I) recognition domain: colonies of newly transformed plasmid DNA from E. coli BL21(DE3)-condon plus-RIL cells were cultivated in 50 mL of Terrific Broth medium containing 50 μg/mL kanamycin and 34 μg/mL chloramphenicol at 37° C. overnight (starting culture). The starting culture was then diluted 100-fold in 1 L of fresh TB medium and the cells were grown at 37° C. to an optical density of about 0.8 at OD600 and then the temperature was lowered to 16° C. When the system was equilibrated at 16° C., the optical density at OD600 was approximately 1.2, and protein expression was induced with 0.2 mmol of isopropyl-β-D-thiogalactopyranoside (IPTG) overnight at 16° C. Bacteria were harvested by centrifugation (4000×g, 20 minutes, 4° C.) and stored as a pellet at −80° C. The cells expressing His 6-tagged protein was resuspend in lysis buffer [50 mmol 4-hydroxyethylpiperazineethanesulfonic acid (HEPES), 25° C., pH 7.5, 500 mmol NaCl, 10 mmol imidazole, 5% glycerol and freshly added 0.5 mmol of tris(2-carboxyethyl)phosphine hydrochloride (TCEP) and 1 mmol of phenylmethanesulfonyl fluoride (PMSF)] and lysed at 4° C. using JN 3000PLUS high pressure homogenizer (JNBIO-Guangzhou, China). The lysate was clarified by centrifugation (12,000×g for 1 hour at 4° C.) and applied to a nickel-nitriloacetate agarose column. The column was washed once with 50 mL of wash buffer containing 30 mmol of imidazole. The protein was eluted using imidazole in an elution buffer in a stepwise elution (100-250 mmol imidazole in 50 mmol HEPES, 25° C., pH 7.5, 500 mmol NaCl, 5% glycerol). All fractions were collected and monitored by SDS-polyacrylamide gel electrophoresis (Bio-Rad Criterion TM Precast Gels, 4-12% Bis-Tris, 1.0 mm, from Bio-Rad, CA). After 1 mmol of dithiothreitol (DTT) was added, the eluted proteins were treated with tobacco […] virus (TEV) protease overnight at 4° C. to remove the His6 tag. The protein was concentrated and further purified by size exclusion chromatography on a Superdex 75 16/60 HiLoad gel filtration column. The samples were monitored by SDS-polyacrylamide gel electrophoresis and concentrated to 8-10 mg/mL with gel filtration buffer, 10 mmol Hepes pH 7.5, 500 mM NaCl, 1 mmol DTT, and used for protein binding assays and crystallization.
The fluorogenic substrate was (+)-JQ1 linked to a fluorescent molecule and the working concentration was 5 nM. BRD4 (I) protein had 10 nM of working concentration and the total reaction system was 40 μL. The buffer was 50 mM 4-hydroxyethylpiperazineethanesulfonic acid (HEPES) pH 7.4, 150 mM NaCl, 0.5 mM 3[(3-cholamidopropyl)dimethylammonio]propanesulfonate (CHAPS). […] The final concentration of DMSO was chosen to be 0.2%, taking into account the solubility of the compound and the effect of DMSO on the assay. All measurements were made under these conditions. […]
On the technique in general: In fluorescence polarisation assays a small probe gives low polarisation when free and higher when bound to something large.
`Cc1ccc(-n2nnnc2-c2ccc3c(c2)N(C2CCCC2)C(C)C(=O)N3C)cc1` (stereo not shown) [Example 4]: the IC50 was 18.4 nM. `C[C@@H]1C(=O)N(C)c2ccc(-c3nc(C(=O)N4CCN(C)CC4)nn3-c3ccccc3)cc2N1C1CCCC1` [Example 7]: the IC50 came out at 7.6 nM.

As for `Cc1ccc(-n2nc(C(=O)N3CCN(C)CC3)nc2-c2ccc3c(c2)N(C2CCCC2)[C@H](C)C(=O)N3C)c(C)c1` [Example 9], the IC50 came to 8.2 nM. As to `CCN1CCN(C(=O)c2nc(-c3ccc4c(c3)N(C3CCCC3)[C@H](C)C(=O)N4C)n(-c3ccc(C)cc3)n2)CC1` [Example 10], the IC50 is 4.96 nM. Still for that read-out and setting: as for `Cc1ccc(-n2nc(C(=O)N3CCN(C4CC4)CC3)nc2-c2ccc3c(c2)N(C2CCCC2)[C@H](C)C(=O)N3C)cc1` [Example 11], the figure is 5.08 nM. Still for that read-out and setting: as for `Cc1ccc(-n2nc(C(=O)N(C)CCN(C)C)nc2-c2ccc3c(c2)N(C2CCCC2)[C@H](C)C(=O)N3C)cc1` [Example 13], the figure is 8.3 nM.

In the case of `Cc1ccc(-n2nc(C(=O)N3CCN(C(C)C)CC3)nc2-c2ccc3c(c2)N(C2CCCC2)[C@H](C)C(=O)N3C)cc1` [Example 15], the concentration for half-maximal inhibition (IC50) was 4.2 nM. For the compound `Cc1ccc(-n2nc(C(=O)N3CCCN(C)CC3)nc2-c2ccc3c(c2)N(C2CCCC2)[C@H](C)C(=O)N3C)cc1` [Example 19], the IC50 amounted to 4.6 nM. On the same count and under the same terms, as for `Cc1ccc(-n2nc(C(=O)N3CCC4(CCCC4)CC3)nc2-c2ccc3c(c2)N(C2CCCC2)[C@H](C)C(=O)N3C)cc1` [Example 20], the figure is 25.4 nM; as for `Cc1ccc(-n2nc(C(=O)N3CCC4(CCOC4)CC3)nc2-c2ccc3c(c2)N(C2CCCC2)[C@H](C)C(=O)N3C)cc1` [Example 21], 7.1 nM; as for `Cc1ccc(-n2nc(C(=O)N3CCN4CCCC4C3)nc2-c2ccc3c(c2)N(C2CCCC2)[C@H](C)C(=O)N3C)cc1` (stereo partly shown) [Example 22], 8.1 nM. Same read-out and setting: as for `Cc1ccc(-n2nc(C(=O)N3C[C@@H](NC(=O)OC(C)(C)C)C4(CC4)C3)nc2-c2ccc3c(c2)N(C2CCCC2)[C@H](C)C(=O)N3C)cc1` [Example 23], the figure is 9.2 nM. Consider `Cc1ccc(-n2nc(C(=O)N3C[C@@H](N)C4(CC4)C3)nc2-c2ccc3c(c2)N(C2CCCC2)[C@H](C)C(=O)N3C)cc1` [Example 24], for which the IC50 was 5.3 nM.

As to `Cc1ccc(-n2nc(C(=O)N3C4CCC3CN(C)C4)cc2-c2ccc3c(c2)N(C2CCCC2)[C@H](C)C(=O)N3C)cc1` [Example 28], the IC50 turned out to be 6.7 nM. The same measure, in the same setting: for `Cc1ccc(-n2nc(C(=O)N3CC4CCC(C3)N4C)cc2-c2ccc3c(c2)N(C2CCCC2)[C@H](C)C(=O)N3C)cc1` [Example 29] the value was 7.7 nM; for `Cc1ccc(-n2c(C)nnc2-c2ccc3c(c2)N(C2CCCC2)[C@H](C)C(=O)N3C)cc1` [Example 32], 5.1 nM; for `Cc1ccc(-n2nc(C(=O)N3C[C@@H](C)N[C@@H](C)C3)nc2-c2ccc3c(c2)N(C2COC2)[C@H](C)C(=O)N3C)cc1` [Example 38], 13.6 nM.

On to `Cc1ccc(-n2nc(C(=O)N3C[C@@H](C)N[C@@H](C)C3)nc2-c2ccc3c(c2)N(C2CCOCC2)[C@H](C)C(=O)N3C)cc1` [Example 39], for which the IC50 was determined as 10.3 nM.

Consider `Cc1ccc(-n2nc(C(=O)N3C[C@@H](C)N[C@@H](C)C3)nc2-c2ccc3c(c2)N(C2CCC(F)(F)CC2)[C@H](C)C(=O)N3C)cc1` [Example 40], for which the IC50 came out at 16 nM. Turning to `Cc1ccc(-n2nc(C(=O)N3C[C@@H](C)N[C@@H](C)C3)nc2-c2ccc3c(c2)N(C2CC(F)(F)C2)[C@H](C)C(=O)N3C)cc1` [Example 41], the IC50 came to 20.1 nM. Same read-out and setting: for `Cc1ccc(-n2nc(CN3C[C@@H](C)N[C@@H](C)C3)nc2-c2ccc3c(c2)N(C2CCCC2)[C@H](C)C(=O)N3C)cc1` [Example 47] the value was 6.7 nM.

For the next assay, the system named is human myeloma cells MM.1S. The assay can be described thus: MM.1S cell viability, CCK-8 method. In kind it is cell-based. The following applies: 72 h treatment, CCK-8. The procedure:
The MM.1S cell line was tested for cell viability. The test methods were as follows: human myeloma cells MM.1S were treated with compound for 72 h, and the proliferation inhibition effect and degree of the compound were detected by CCK-8 method.
Background: Tetrazolium assays rely on reduction of a dye to a coloured formazan, in cell work by metabolically active cells.
For the compound (+)-JQ1 [reference compound], half-maximal inhibition (IC50) was put at 19.3 ± 9.3 nM.

Staying with this assay, now noted: Homo sapiens, MM1.S; 72 h treatment, CCK-8.
`Cc1ccc(-n2nc(C(=O)N3CCN(C)CC3)nc2-c2ccc3c(c2)N(C2CCCC2)[C@H](C)C(=O)N3C)c(C)c1` [Example 9] gave an IC50 of 23 ± 7.42 nM. In the case of `CCN1CCN(C(=O)c2nc(-c3ccc4c(c3)N(C3CCCC3)[C@H](C)C(=O)N4C)n(-c3ccc(C)cc3)n2)CC1` [Example 10], the 50% inhibitory concentration (IC50) is 25.8 ± 0.52 nM. Still for that read-out and setting: as for `Cc1ccc(-n2nc(C(=O)N(C)CCN(C)C)nc2-c2ccc3c(c2)N(C2CCCC2)[C@H](C)C(=O)N3C)cc1` [Example 13], the figure is 22.4 ± 1.4 nM.
